Data from PubChem BioAssay (NCI).
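Grown in 96-well plates, cells were treated for 48 hours with each compound at five concentrations. Insufficient inhibition: endpoint recorded as highest concentration tested. Abbreviation: GI50, concentration required for 50% inhibition of growth. At the TGI there is no net growth.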

Tests used:
Assay in all cases: growth of human tumour cells (NCI), 48 h
UACC-62 melanoma = system: UACC-62 melanoma
NCI-H23 lung = system: NCI-H23 lung
MDA-MB-231 breast = system: MDA-MB-231 breast
SK-MEL-5 melanoma = system: SK-MEL-5 melanoma
OVCAR-8 ovarian = system: OVCAR-8 ovarian
SN12C renal = system: SN12C renal
UO-31 renal = system: UO-31 renal
PC-3 prostate = system: PC-3 prostate
K-562 leukemia = system: K-562 leukemia
786-0 renal = system: 786-0 renal
LOX IMVI melanoma = system: LOX IMVI melanoma
CAKI-1 renal = system: CAKI-1 renal
HCT-15 colon = system: HCT-15 colon
A498 renal = system: A498 renal
SF-295 CNS = system: SF-295 CNS
NCI-H460 lung = system: NCI-H460 lung
RPMI-8226 leukemia = system: RPMI-8226 leukemia
M14 melanoma = system: M14 melanoma
SR leukemia = system: SR leukemia
SF-539 CNS = system: SF-539 CNS
SF-268 CNS = system: SF-268 CNS
SNB-75 CNS = system: SNB-75 CNS
MDA-MB-435 = system: MDA-MB-435
A549 NSCLC = system: A549 NSCLC
MALME-3M melanoma = system: MALME-3M melanoma
HS 578T breast = system: HS 578T breast
RXF 393 renal = system: RXF 393 renal
MOLT-4 leukemia = system: MOLT-4 leukemia
UACC-257 melanoma = system: UACC-257 melanoma
KM12 colon = system: KM12 colon
U251 CNS = system: U251 CNS
MCF7 breast = system: MCF7 breast
ACHN renal = system: ACHN renal
COLO 205 colon = system: COLO 205 colon
SW-620 colon = system: SW-620 colon
HL-60(TB) leukemia = system: HL-60(TB) leukemia
SK-MEL-28 melanoma = system: SK-MEL-28 melanoma
SK-OV-3 ovarian = system: SK-OV-3 ovarian
NCI-H522 lung = system: NCI-H522 lung
HCC-2998 colon = system: HCC-2998 colon
OVCAR-4 ovarian = system: OVCAR-4 ovarian
T-47D breast = system: T-47D breast
HOP-92 NSCLC = system: HOP-92 NSCLC
OVCAR-3 ovarian = system: OVCAR-3 ovarian
HCT-116 colon = system: HCT-116 colon
NCI-H226 lung = system: NCI-H226 lung
HT29 colon = system: HT29 colon
HOP-62 NSCLC = system: HOP-62 NSCLC
IGROV1 ovarian = system: IGROV1 ovarian
BT-549 breast = system: BT-549 breast
NCI/ADR-RES ovarian = system: NCI/ADR-RES ovarian
TK-10 renal = system: TK-10 renal
CCRF-CEM leukemia = system: CCRF-CEM leukemia
SNB-19 CNS = system: SNB-19 CNS
OVCAR-5 ovarian = system: OVCAR-5 ovarian
SK-MEL-2 melanoma = system: SK-MEL-2 melanoma
DU-145 prostate = system: DU-145 prostate

## COc1cc[nH]c1/C=C1\C(=O)Nc2ccccc21
UACC-62 melanoma
  GI50: 8.58 µM
  TGI: > 25 µM
NCI-H23 lung
  GI50: 7.7 µM
  TGI: > 25 µM
MDA-MB-231 breast
  GI50: 4.87 µM
  TGI: > 25 µM
SK-MEL-5 melanoma
  GI50: 10.9 µM
  TGI: > 25 µM
OVCAR-8 ovarian
  GI50: 14.2 µM
  TGI: > 25 µM
SN12C renal
  GI50: 7.36 µM
  TGI: > 25 µM
UO-31 renal
  GI50: 1.69 µM
  TGI: 24.6 µM
PC-3 prostate
  GI50: 8.78 µM
  TGI: > 25 µM
K-562 leukemia
  GI50: 16.9 µM
  TGI: > 25 µM
786-0 renal
  GI50: 15.9 µM
  TGI: > 25 µM
LOX IMVI melanoma
  GI50: 7.68 µM
  TGI: > 25 µM
CAKI-1 renal
  GI50: 1.04 µM
  TGI: > 11.5 µM
HCT-15 colon
  GI50: 4.85 µM
  TGI: > 25 µM
A498 renal
  GI50: 5.34 µM
  TGI: > 25 µM
SF-295 CNS
  GI50: > 25 µM
  TGI: > 25 µM
NCI-H460 lung
  GI50: 8.85 µM
  TGI: > 25 µM
RPMI-8226 leukemia
  GI50: 14.5 µM
  TGI: > 25 µM
M14 melanoma
  GI50: 4.98 µM
  TGI: > 25 µM
SR leukemia
  GI50: 6.44 µM
  TGI: > 22.7 µM
SF-539 CNS
  GI50: 7.02 µM
  TGI: > 25 µM
SF-268 CNS
  GI50: 11.2 µM
  TGI: > 25 µM
SNB-75 CNS
  GI50: 5.9 µM
  TGI: > 25 µM
MDA-MB-435
  GI50: 9.01 µM
  TGI: > 25 µM
A549 NSCLC
  GI50: 11.1 µM
  TGI: > 25 µM
MALME-3M melanoma
  GI50: 9.88 µM
  TGI: > 25 µM
HS 578T breast
  GI50: 5.91 µM
  TGI: > 25 µM
RXF 393 renal
  GI50: 5.33 µM
  TGI: > 25 µM
MOLT-4 leukemia
  GI50: 11 µM
  TGI: > 25 µM
UACC-257 melanoma
  GI50: 17.3 µM
  TGI: > 25 µM
KM12 colon
  GI50: 0.948 µM
  TGI: > 25 µM
U251 CNS
  GI50: 4.17 µM
  TGI: > 25 µM
MCF7 breast
  GI50: 5.79 µM
  TGI: > 25 µM
ACHN renal
  GI50: 3.5 µM
  TGI: > 25 µM
COLO 205 colon
  GI50: 14.1 µM
  TGI: > 25 µM
SW-620 colon
  GI50: 7.24 µM
  TGI: > 25 µM
HL-60(TB) leukemia
  GI50: 6.58 µM
  TGI: > 25 µM
SK-MEL-28 melanoma
  GI50: 16 µM
  TGI: > 25 µM
SK-OV-3 ovarian
  GI50: 8.14 µM
  TGI: > 25 µM
NCI-H522 lung
  GI50: 12.7 µM
  TGI: > 25 µM
HCC-2998 colon
  GI50: > 20.7 µM
  TGI: > 25 µM
OVCAR-4 ovarian
  GI50: 8.02 µM
  TGI: > 25 µM
T-47D breast
  GI50: 4.05 µM
  TGI: > 25 µM
HOP-92 NSCLC
  GI50: 4.34 µM
  TGI: > 21 µM
OVCAR-3 ovarian
  GI50: > 21.5 µM
  TGI: > 25 µM
HCT-116 colon
  GI50: 5.66 µM
  TGI: > 25 µM
NCI-H226 lung
  GI50: 7.14 µM
  TGI: > 25 µM
HT29 colon
  GI50: 12.3 µM
  TGI: > 25 µM
HOP-62 NSCLC
  GI50: > 19.3 µM
  TGI: > 25 µM
IGROV1 ovarian
  GI50: 8.48 µM
  TGI: > 25 µM
BT-549 breast
  GI50: 7.98 µM
  TGI: > 25 µM
NCI/ADR-RES ovarian
  GI50: 15.5 µM
  TGI: > 25 µM
TK-10 renal
  GI50: 6.71 µM
  TGI: > 25 µM
CCRF-CEM leukemia
  GI50: 13.1 µM
  TGI: > 25 µM
SNB-19 CNS
  GI50: > 25 µM
  TGI: > 25 µM
OVCAR-5 ovarian
  GI50: 15.3 µM
  TGI: > 25 µM
SK-MEL-2 melanoma
  GI50: 3.55 µM
  TGI: 15.7 µM
DU-145 prostate
  GI50: 9.37 µM
  TGI: > 25 µM

## O=C(N/N=C/c1cccc(O)c1O)c1ccccc1
UACC-62 melanoma
  GI50: 0.902 µM
  TGI: 5.32 µM
NCI-H23 lung
  GI50: 0.992 µM
  TGI: > 100 µM
MDA-MB-231 breast
  GI50: 0.495 µM
  TGI: > 100 µM
SK-MEL-5 melanoma
  GI50: 0.626 µM
  TGI: > 22.7 µM
OVCAR-8 ovarian
  GI50: 0.587 µM
  TGI: > 100 µM
SN12C renal
  GI50: 0.73 µM
  TGI: > 100 µM
UO-31 renal
  GI50: 0.434 µM
  TGI: 14 µM
PC-3 prostate
  GI50: 0.725 µM
  TGI: > 100 µM
K-562 leukemia
  GI50: 1.29 µM
  TGI: > 100 µM
786-0 renal
  GI50: 1.48 µM
  TGI: > 100 µM
LOX IMVI melanoma
  GI50: 0.511 µM
  TGI: > 100 µM
CAKI-1 renal
  GI50: 0.519 µM
  TGI: 16.5 µM
HCT-15 colon
  GI50: 0.466 µM
  TGI: > 100 µM
A498 renal
  GI50: 6.28 µM
  TGI: 65.4 µM
SF-295 CNS
  GI50: 2.28 µM
  TGI: > 100 µM
NCI-H460 lung
  GI50: 0.878 µM
  TGI: > 100 µM
RPMI-8226 leukemia
  GI50: 1.3 µM
  TGI: > 100 µM
M14 melanoma
  GI50: 0.695 µM
  TGI: 11.5 µM
SR leukemia
  GI50: 0.412 µM
  TGI: > 76 µM
SF-539 CNS
  GI50: 0.642 µM
  TGI: 15.3 µM
SF-268 CNS
  GI50: 0.567 µM
  TGI: > 100 µM
SNB-75 CNS
  GI50: 4.66 µM
  TGI: 85.6 µM
MDA-MB-435
  GI50: 1.88 µM
  TGI: > 100 µM
A549 NSCLC
  GI50: 2.01 µM
  TGI: > 100 µM
MALME-3M melanoma
  GI50: 1.35 µM
  TGI: 35.8 µM
HS 578T breast
  GI50: 10.5 µM
  TGI: > 100 µM
RXF 393 renal
  GI50: 1.98 µM
  TGI: > 100 µM
MOLT-4 leukemia
  GI50: 0.362 µM
  TGI: > 39.2 µM
UACC-257 melanoma
  GI50: 0.895 µM
  TGI: 7.05 µM
KM12 colon
  GI50: 0.769 µM
  TGI: > 100 µM
U251 CNS
  GI50: 0.569 µM
  TGI: > 100 µM
MCF7 breast
  GI50: 0.357 µM
  TGI: > 100 µM
ACHN renal
  GI50: 0.477 µM
  TGI: > 100 µM
COLO 205 colon
  GI50: 1.97 µM
  TGI: > 55.7 µM
SW-620 colon
  GI50: 0.635 µM
  TGI: > 100 µM
HL-60(TB) leukemia
  GI50: 0.301 µM
  TGI: 1.94 µM
SK-MEL-28 melanoma
  GI50: 1.24 µM
  TGI: > 100 µM
SK-OV-3 ovarian
  GI50: 3.68 µM
  TGI: > 100 µM
NCI-H522 lung
  GI50: 0.323 µM
  TGI: 2.25 µM
HCC-2998 colon
  GI50: 3.2 µM
  TGI: > 100 µM
OVCAR-4 ovarian
  GI50: 0.312 µM
  TGI: > 29.5 µM
T-47D breast
  GI50: 2.65 µM
  TGI: > 100 µM
HOP-92 NSCLC
  GI50: 0.329 µM
  TGI: 8.38 µM
OVCAR-3 ovarian
  GI50: 0.369 µM
  TGI: > 100 µM
HCT-116 colon
  GI50: 0.388 µM
  TGI: > 100 µM
NCI-H226 lung
  GI50: 3.22 µM
  TGI: > 30.2 µM
HT29 colon
  GI50: 4.9 µM
  TGI: > 100 µM
HOP-62 NSCLC
  GI50: 1.52 µM
  TGI: > 100 µM
IGROV1 ovarian
  GI50: 3.49 µM
  TGI: > 100 µM
BT-549 breast
  GI50: 1.84 µM
  TGI: > 73 µM
NCI/ADR-RES ovarian
  GI50: 0.648 µM
  TGI: > 100 µM
TK-10 renal
  GI50: 2.57 µM
  TGI: > 69.1 µM
CCRF-CEM leukemia
  GI50: 0.244 µM
  TGI: > 59.7 µM
SNB-19 CNS
  GI50: 1.46 µM
  TGI: > 100 µM
OVCAR-5 ovarian
  GI50: 3.71 µM
  TGI: > 100 µM
SK-MEL-2 melanoma
  GI50: 11.7 µM
  TGI: > 100 µM
DU-145 prostate
  GI50: 1.15 µM
  TGI: > 100 µM
